Common to all, as to format: cell-based
Test [1] relates to Tbx1. Nature of the test: RT-PCR of thermogenesis-related gene Tbx1 in adipocytes. The conditions noted are these: 3T3-L1 adipocytes, 5 μM and 50 μM peptide, 72 hours, GAPDH internal control. On the procedure: (§1) First, in order to differentiate pre-adipocytes into adipocytes, pre-adipocytes and 3T3-L1 cells purchased from the American Type Culture Collection (ATCC) were cultured in DMEM including 2% fetal bovine serum (FBS). In order to differentiate 3T3-L1 cells into adipocytes, the culture was dispensed into a 12-well plate at a density of 1×10^5 cells/well, and 2 days after the time-point of achieving the confluent growth (day 0), the culture medium was replaced with DMEM medium including 10% FBS, 10 μg/mL insulin, 0.5 mM isobutylmethylxanthine (IBMX)(Sigma, USA), and 1 μM dexamethasone (Sigma. USA), and cultured. After 2 days (day 2), the culture medium was replaced with DMEM medium including 10% FBS and 10 μg/mL insulin and cultured, and 3 days thereafter (day 5), the culture medium was replaced with a medium including only 10% FBS Two days thereafter (day 7), the cells were named 3T3-L1 adipocytes and cultured under the conditions of 37° C., 5% CO2 environment. The adipocytes which were induced to differentiate for 10 days were used in subsequent experiments.
(§2) In order to confirm whether the peptide of the present invention has the effect of preventing or treating obesity, the levels of mRNA expression of PGC1α1, Tbx1, FGF21, and UCP1, which are thermogenesis-related genes in brown adipocytes, were examined. […]

The test system of test [2] is perilipin1. Nature of the test: RT-PCR of lipolysis-related gene perilipin1 in adipocytes. As to conditions: 3T3-L1 adipocytes, 5 μM and 50 μM peptide, 72 hours, GAPDH internal control. The method, then: as §1
(§3) In adipocytes, in order to confirm whether the peptide of the present invention has the effect of activating the lipolysis-promoting cell signaling pathway. mRNA expression levels of HSL, ATGL, and perilipin1 genes associated with lipolysis promotion were examined. […]

Test [3] deals with FGF21. Briefly: RT-PCR of thermogenesis-related gene FGF21 in adipocytes. As to conditions: 3T3-L1 adipocytes, 5 μM and 50 μM peptide, 72 hours, GAPDH internal control. On the procedure: as §1, §2
The test system of test [4] is PGC1α. Nature of the test: RT-PCR of thermogenesis-related gene PGC1α in adipocytes. The conditions noted are these: 3T3-L1 adipocytes, 5 μM and 50 μM peptide, 72 hours, GAPDH internal control. The method, then:
as §1, §2

Test [5] relates to UCP1. Nature of the test: Western blot of thermogenesis-related protein UCP1 in adipocytes. As to conditions: 3T3-L1 adipocytes, 5 μM and 50 μM peptide, 24 hours. On the procedure:
as §1, with “The adipocytes which were induced to differentiate for 10 days were used in subsequent experiments.” left out
(§4) Specifically, the adipocytes obtained in Preparation Example 1 were treated with 5 μM and 50 μM of the peptide of SEQ ID NO: 1, respectively. […] Then, the protein was quantified and subjected to Western blotting was performed using an anti-PRDM16 antibody (Cell signaling technology (CST), USA) and an anti-UCP1 antibody (Abcam, England).

Test [6] has as its system UCP1. Nature of the test: RT-PCR of thermogenesis-related gene UCP1 in adipocytes. The conditions noted are these: 3T3-L1 adipocytes, 5 μM and 50 μM peptide, 72 hours, GAPDH internal control. The method, then: as §1, §2
The subject of test [7] is ATGL. Briefly: RT-PCR of lipolysis-related gene ATGL in adipocytes. The conditions noted are these: 3T3-L1 adipocytes, 5 μM and 50 μM peptide, 72 hours, GAPDH internal control. The method, then: as §1, §3
In test [8] the test system is 3T3-L1 adipocytes. Nature of the test: Glycerol colorimetric assay, free glycerol released from adipocytes. The conditions noted are these: 5 μM and 50 μM peptide, 48 hours, supernatant. On the procedure:
as §1, with “The adipocytes which were induced to differentiate for 10 days were used in subsequent experiments.” left out
Specifically, adipocytes differentiated in Preparation Example 1 were treated with the peptide of SEQ ID NO: 1 at concentrations of 5 μM and 50 μM, and treated with 20 nM of TNFα, as a positive control, followed by culturing for 48 hours. After obtaining the supernatant, the amount of glycerol was measured using a glycerol colorimetric assay kit (Cayman Chemical, USA).

The subject of test [9] is PRDM16. Briefly: Western blot of thermogenesis-related protein PRDM16 in adipocytes. As to conditions: 3T3-L1 adipocytes, 5 μM and 50 μM peptide, 24 hours. On the procedure: as §1, with “The adipocytes which were induced to differentiate for 10 days were used in subsequent experiments.” left out
as §4

The test system of test [10] is HSL. Briefly: RT-PCR of lipolysis-related gene HSL in adipocytes. The conditions noted are these: 3T3-L1 adipocytes, 5 μM and 50 μM peptide, 72 hours, GAPDH internal control. On the procedure: as §1, §3
The test system of test [11] is pHSL. Nature of the test: Western blot of pHSL in adipocytes. As to conditions: 3T3-L1 adipocytes, 5 μM and 50 μM peptide, 1 hour, Western blot with anti-pHSL antibody. On the procedure: as §1, with “The adipocytes which were induced to differentiate for 10 days were used in subsequent experiments.” left out
Specifically, the adipocytes differentiated in Preparation Example 1 were treated with 5 μM and 50 μM of the peptide of SEQ ID NO: 1, and after 1 hour, the cells were recovered and treated with a cell lysis buffer to obtain a lysate. Then, the protein was quantified and subjected to Western blotting using an anti-pHSL antibody (Cell Signaling Technology (CST), USA).

Regarding DYNMKWIHVY [SEQ ID NO: 1], the “mRNA expression of Tbx1 gene” value in [1] is “increased”. Further, the “mRNA expression of perilipin1 gene” value in test [2] is recorded as “increased”. For the same sequence, the “mRNA expression of FGF21 gene” value in [3] is recorded as “increased”. For the same sequence, in test [4], the “mRNA expression of PGC1α gene” value is reported as “increased”. Besides, the “expression of UCP1 protein” value in test [5] was “increased”. For the same sequence, in [6], the “mRNA expression of UCP1 gene” value is “increased”. In addition, the “mRNA expression of ATGL gene” value in test [7] is reported as “increased”. In addition, the “amount of glycerol released” value in test [8] is “increased in a concentration-dependent manner”. For the same sequence, in test [9], the “expression of PRDM16 protein” value was “increased”. Moreover, in test [10], the “mRNA expression of HSL gene” value is on record as “increased”. In addition, the “phosphorylation of HSL protein” value in [11] was “increased”.

Source of the values: patent US20240400615A1, “PEPTIDE HAVING ANTI-OBESITY ACTIVITY AND USES THEREOF” (CAREGEN CO., LTD., priority 2021, published 2024).
